Experimental data from US20260345601A1, “FORMS OF CARBAMATE DERIVATIVES AND RELATED USES” (NodThera Limited, priority 2022, published 2026).
Converted amounts (≈) assume the structure as drawn. “Also recorded” adds a separate entry of the source. Values belong to the compound of their own block, whether it stands above or below them.

What was measured:
NLRP3 inflammasome = settings: reported in literature; cited from earlier work
[1] = Chemical stability evaluation in solvents (Table F); type: physicochemical
Method: Chemical stability of this compound was evaluated in MeOH, Acetone, MEK, EtOAc, and IPAc at different temperature points.

[2] = Gravimetric vapour sorption (GVS); type: physicochemical; settings: for GVS hygroscopicity / GVS hysteresis / GVS water uptake: 25 °C; for XRPD post GVS: form after GVS experiment
Method: Gravimetric Vapour Sorption (GVS)
Sorption isotherms were obtained using a SMS DVS Intrinsic moisture sorption analyser, controlled by DVS Intrinsic Control software. The sample temperature was maintained at 25 °C by the instrument controls. The humidity was controlled by mixing streams of dry and wet nitrogen, with a total flow rate of 200 ml/min. The relative humidity was measured by a calibrated Rotronic probe (dynamic range of 1.0-100% RH), located near the sample. The weight change, (mass relaxation) of the sample as a function of % RH was constantly monitored by a microbalance (accuracy±0.005 mg).
Typically, 5-30 mg of sample was placed in a tared mesh stainless steel basket under ambient conditions. The sample was loaded and unloaded at 40% RH and 25 °C (typical room conditions). A moisture sorption isotherm was performed as outlined below (2 scans per complete cycle). The standard isotherm was performed at 25 °C at 10% RH intervals over a 0-90% RH range. Typically, a double cycle (4 scans) was carried out. Data analysis was carried out within Microsoft Excel using the DVS Analysis Suite.
The sample was recovered after completion of the isotherm and re-analysed by XRPD.

[3] = TGA (thermo-gravimetric analysis)/thermal analysis; type: physicochemical; settings: for TGA weight loss before degradation: heated at 10 °C/min, nitrogen purge
Method: Thermo-Gravimetric Analysis (TGA)
TA Instruments Q500: TGA data were collected on a TA Instruments Q500 TGA, equipped with a 16 position auto-sampler. Typically, 5-10 mg of each sample was loaded onto a pre-tared aluminium DSC pan and heated at 10 °C/min from ambient temperature to 350 °C. A nitrogen purge at 60 ml/min was maintained over the sample. The instrument control software was Advantage for Q Series and Thermal Advantage and the data were analysed using Universal Analysis or TRIOS.

[4] = Drying stability test (Table I); type: physicochemical; settings: 50 °C under vacuum
[5] = Storage at 25 °C/97% RH and 40 °C/75% RH; type: physicochemical
Method: Chemical Purity Determination by High-Performance Liquid Chromatography (HPLC)
Purity analysis was performed on an Agilent HP1100/Infinity II 1260 series system equipped with a diode array detector and using OpenLAB software. The full method details are provided below:
Unless stated within the appropriate data tables, all HPLC purity data reported has been run using the HPLC Method No. 2.

[6] = Solubility in aqueous and biorelevant media (Table A); type: physicochemical
Excerpt: Form 1 was characterized using a wide range of techniques to investigate the solid form and chemical properties (FIGS. 1-6B).

[7] = Solubility in single solvents, Form 2 as starting material (Table D); type: physicochemical; settings: 20-25 °C
Method: Solubility of Form 1 was measured in several single solvents using Form 2 as starting material, respectively. […] Thus, MeOH, Acetone, MEK, EtOAc and IPAc were selected for further chemical stability evaluation before starting solubility test with anti-solvents.

[8] = Solubility of Form 1 in IPAc/Heptane system (Table E); type: physicochemical
Method: Solubility of Form 1 was further measured in IPAc/Heptane system with different ratio at 0-50 °C.

SMILES: O=[N+]([O-])C=Cc1ccc2c(c1)OCO2 [3,4-methylenedioxy-β-nitrostyrene]
Effect on NLRP3 activation (NLRP3 inflammasome): impair NLRP3 activation

SMILES: Cc1ccc(S(=O)(=O)/C=C/C#N)cc1 [Bay 11-7082]
Effect on NLRP3 activation (NLRP3 inflammasome): impair NLRP3 activation

Chemical stability in words ([1]; Acetone and EtOAc, 23 h): slight degradation
Chemical stability: purity ([1]; Acetone, 40 °C, 0 h): 99.57%
Chemical stability: purity ([1]; Acetone, 40 °C, 5-6 h): 99.55%
Chemical stability: purity ([1]; Acetone, 40 °C, 23-24 h): 98.06%
Chemical stability: purity ([1]; EtOAc, 40 °C, 0 h): 99.49%
Chemical stability: purity ([1]; EtOAc, 40 °C, 5-6 h): 99.46%
Chemical stability: purity ([1]; EtOAc, 40 °C, 23-24 h): 99.46%
Chemical stability: purity ([1]; EtOAc, 50 °C, 0 h): 99.43%
Chemical stability: purity ([1]; EtOAc, 50 °C, 5-6 h): 99.31%
Chemical stability: purity ([1]; EtOAc, 50 °C, 23-24 h): 99.27%
Chemical stability: purity ([1]; IPAc, 50 °C, 0 h): 99.70%
Chemical stability: purity ([1]; IPAc, 50 °C, 5 h): 99.73%
Chemical stability in words ([1]; IPAc, 50 °C, 24 h): chemical stable
Chemical stability: purity ([1]; IPAc, 50 °C, 24 h): 99.76%
Chemical stability: purity ([1]; MEK, 40 °C, 0 h): 99.52%
Chemical stability: purity ([1]; MEK, 40 °C, 5-6 h): 99.51%
Chemical stability: purity ([1]; MEK, 40 °C, 23-24 h): 93.28%
Chemical stability: purity ([1]; MEK, 50 °C, 0 h): 99.38%
Chemical stability: purity ([1]; MEK, 50 °C, 5-6 h): 92.75%
Chemical stability: purity ([1]; MEK, 50 °C, 23-24 h): 87.20%
Chemical stability in words ([1]; MeOH and MEK, 23 h): serious degradation
Chemical stability: purity ([1]; MeOH, 50 °C, 0 h): 99.12%
Chemical stability: purity ([1]; MeOH, 50 °C, 5-6 h): 98.03%
Chemical stability: purity ([1]; MeOH, 50 °C, 23-24 h): 90.58%
SMILES: CC(C)OC(=O)[C@@H](Cc1ncccn1)OC(=O)Nc1c2c(cc3c1CCC3)CCC2 [Compound A, propan-2-yl(2R)-2-{[(1,2,3,5,6,7-hexahydro-s-indacen-4-yl)carbamoyl]oxy}-3-(pyrimidin-2-yl) propanoate]

GVS hygroscopicity [2]: Non-hygroscopic
GVS hysteresis [2]: no hysteresis
GVS water uptake ([2]; 0-90% RH): <0.1% water uptake between 0-90% RH
GVS water uptake ([2]; 40-90% RH): < 0.1%
XRPD post GVS [2]: remained as Form 1
Thermal stability by thermal analysis [3]: thermally stable
TGA weight loss before degradation [3]: no weight loss before degradation
Drying stability: XRPD ([4]; 0 h): Form 1
Drying stability: purity ([4]; 0 h): 99.0%
Drying stability: XRPD ([4]; 22 h): Form 1
Drying stability: purity ([4]; 22 h): 99.1%
Drying stability: XRPD ([4]; 70 h): Form 1
Drying stability: purity ([4]; 70 h): 99.1%
Drying stability in words ([4]; total 70 h): no degradation and form change
Storage: solid form ([5]; 25 °C/97% RH): Form 1
Storage: solid form ([5]; 40 °C/75% RH): Form 1
Solubility ([6]; fassif): 26 µg/mL (≈ 0.0635 mM)
Solubility ([6]; fessif): 14 µg/mL (≈ 0.0342 mM)
Solubility ([6]; pH = 1.2): < 10 µg/mL
Solubility ([6]; pH = 5): < 10 µg/mL
Solubility ([6]; pH = 6.5): < 10 µg/mL
Solubility ([6]; pH = 7.4): < 10 µg/mL
Solubility ([6]; pH = 8.5): < 10 µg/mL
Solubility ([6]; sgf): 4.7 µg/mL (≈ 0.0115 mM)
Solubility ([7]; Acetone, starting material Form 2, XRPD Form 1): 167000 µg/mL (≈ 408 mM)
Solubility ([7]; EtOAc, starting material Form 2, XRPD Form 1): 98000 µg/mL (≈ 239 mM)
Solubility in words ([7]; EtOH and IPA): moderate solubility
Solubility ([7]; EtOH, starting material Form 2, XRPD Form 1): 45000 µg/mL (≈ 110 mM)
Solubility ([7]; IPA, starting material Form 2, XRPD Form 1): 24000 µg/mL (≈ 58.6 mM)
Solubility ([7]; IPAc, starting material Form 2, XRPD Form 1): 48000 µg/mL (≈ 117 mM)
Solubility ([7]; MEK, starting material Form 2, XRPD Form 1): 175000 µg/mL (≈ 427 mM)
Solubility ([7]; MeOH, starting material Form 2, XRPD Form 1): 77000 µg/mL (≈ 188 mM)
Solubility in words ([7]; MeOH, Acetone, MEK, EtOAc and IPAc): good solubility
Solubility in words ([7]; n-heptane and water): poor solubility
Solubility ([7]; n-heptane, starting material Form 2, XRPD Form 1): 3000 µg/mL (≈ 7.33 mM)
Solubility ([8]; IPAc/Heptane 1/0 (v/v), 30 °C): 59500 µg/mL (≈ 145 mM)
Solubility ([8]; IPAc/Heptane 1/0 (v/v), 40 °C): 80200 µg/mL (≈ 196 mM)
Solubility ([8]; IPAc/Heptane 1/0 (v/v), 50 °C): 170600 µg/mL (≈ 417 mM)
Solubility ([8]; IPAc/Heptane 1/1 (v/v), 0-5 °C): 6400 µg/mL (≈ 15.6 mM)
Solubility ([8]; IPAc/Heptane 1/1 (v/v), 30 °C): 12100 µg/mL (≈ 29.5 mM)
Solubility ([8]; IPAc/Heptane 1/1 (v/v), 50 °C): 34400 µg/mL (≈ 84 mM)
Solubility ([8]; IPAc/Heptane 1/2 (v/v), 0-5 °C): 3400 µg/mL (≈ 8.3 mM)
Solubility ([8]; IPAc/Heptane 1/2 (v/v), 30 °C): 4800 µg/mL (≈ 11.7 mM)
Solubility ([8]; IPAc/Heptane 1/2 (v/v), 50 °C): 18000 µg/mL (≈ 44 mM)
Solubility ([8]; IPAc/Heptane 1/3 (v/v), 0-5 °C): 1700 µg/mL (≈ 4.15 mM)
Solubility ([8]; IPAc/Heptane 1/3 (v/v), 30 °C): 2900 µg/mL (≈ 7.08 mM)
Solubility ([8]; IPAc/Heptane 1/3 (v/v), 50 °C): 8000 µg/mL (≈ 19.5 mM)
Solubility ([8]; IPAc/Heptane 2/1 (v/v), 30 °C): 27700 µg/mL (≈ 67.6 mM)
Solubility ([8]; IPAc/Heptane 2/1 (v/v), 50 °C): 53400 µg/mL (≈ 130 mM)
Solubility ([8]; IPAc/Heptane 3/1 (v/v), 50 °C): 65200 µg/mL (≈ 159 mM)
Solubility ([8]; IPAc/Heptane 4/1 (v/v), 50 °C): 75200 µg/mL (≈ 184 mM)
Solubility ([8]; IPAc/Heptane 9/1 (v/v), 50 °C): 120000 µg/mL (≈ 293 mM)
XRPD form in solubility test ([8]; IPAc/Heptane, 0-50 °C, starting material Form 1): Form 1
SMILES: CC(C)OC(=O)[C@@H](Cc1ncccn1)OC(=O)Nc1c2c(cc3c1CCC3)CCC2 [Form 1, propan-2-yl(2R)-2-{[(1,2,3,5,6,7-hexahydro-s-indacen-4-yl)carbamoyl]oxy}-3-(pyrimidin-2-yl) propanoate]
Stability at elevated temperatures ([4]; total 70 h): chemically and physically stable at elevated temperatures

GVS hygroscopicity [2]: Non-hygroscopic
GVS hysteresis [2]: no hysteresis
GVS water uptake ([2]; 0-90% RH): ~0.15% reversible uptake from 0-90% RH
GVS water uptake ([2]; 40-90% RH): 0.09%
TGA weight loss before degradation [3]: No weight loss before degradation
Storage: solid form ([5]; 25 °C/97% RH): Crystalline - Form 2
Stability at elevated storage ([5]; 25 °C/97% RH and 40 °C/75% RH for 1 week): stable
Storage: solid form ([5]; 40 °C/75% RH): Crystalline - Form 2
Stability of solid form at elevated conditions ([5]; elevated conditions): stable at elevated conditions
Form conversion after slurry (XRPD) ([7]; all selected solvents except water): converted to Form 1
Form after slurry (XRPD) ([7]; H2O, starting material Form 2): Form 2
Solubility ([7]; H2O, starting material Form 2, XRPD Form 2): 1000 µg/mL (≈ 2.44 mM)
SMILES: CC(C)OC(=O)[C@@H](Cc1ncccn1)OC(=O)Nc1c2c(cc3c1CCC3)CCC2 [Form 2, propan-2-yl(2R)-2-{[(1,2,3,5,6,7-hexahydro-s-indacen-4-yl)carbamoyl]oxy}-3-(pyrimidin-2-yl) propanoate]
XRPD post GVS [2]: remained Form 2; also recorded: Crystalline - Form 2

SMILES: NC[C@@H]1O[C@H](c2ccccc2)Cc2c1ccc(O)c2O [Form A-68930]
Effect on NLRP3 activation (NLRP3 inflammasome): impair NLRP3 activation

SMILES: COc1ccc(Cl)cc1C(=O)NCCc1ccc(S(=O)(=O)NC(=O)NC2CCCCC2)cc1 [Glyburide]
Concentration of NLRP3 inhibition in words (NLRP3 inflammasome): micromolar concentrations
Effect on NLRP3 activation (NLRP3 inflammasome): specific inhibitor of NLRP3 activation

SMILES: OC[C@H]1O[C@@H](c2ccc(Cl)c(Cc3ccc(O[C@H]4CCOC4)cc3)c2)[C@H](O)[C@@H](O)[C@@H]1O [epigliflozin]
Effect on NLRP3 activation (NLRP3 inflammasome): impair NLRP3 activation

SMILES: CNCCC(Oc1ccc(C(F)(F)F)cc1)c1ccccc1 (stereo not drawn) [fluoxetine]
Effect on NLRP3 activation (NLRP3 inflammasome): impair NLRP3 activation

SMILES: OC(CNCC(O)C1CCc2cc(F)ccc2O1)C1CCc2cc(F)ccc2O1 (stereo not drawn) [nebivolol]
Effect on NLRP3 activation (NLRP3 inflammasome): impair NLRP3 activation

SMILES: C=C1C(=O)O[C@H]2[C@H]1CC/C(C)=C/CC[C@@]1(C)O[C@@H]21 [parthenolide]
Effect on NLRP3 activation (NLRP3 inflammasome): impair NLRP3 activation

SMILES: O=c1c(O)c(-c2ccc(O)c(O)c2)oc2cc(O)cc(O)c12 [quercetin]
Effect on NLRP3 activation (NLRP3 inflammasome): suppress NLRP3 activation

SMILES: C[S+]([O-])CCCCN=C=S (stereo not drawn) [sulforaphane]
Effect on NLRP3 activation (NLRP3 inflammasome): suppress NLRP3 activation
